The text below walks through data of US9815819B2, “Complement pathway modulators and uses thereof” (priority 2012, dated 2017).

SMILES strings stand for the structures.

One assay deals with Recombinant human factor D (Homo sapiens (Human), UniProt P00746). Briefly: Human Complement Factor D Assay: Method 1. The format is biochemical. As to conditions: Factor D inhibition, Method 1: 10 nM factor D, 1 hour incubation with compound at room temperature, substrate Z-Lys-thiobenzyl, fluorescence readout; read-out: IC50.
Recombinant human factor D, sequence (P00746 26-253): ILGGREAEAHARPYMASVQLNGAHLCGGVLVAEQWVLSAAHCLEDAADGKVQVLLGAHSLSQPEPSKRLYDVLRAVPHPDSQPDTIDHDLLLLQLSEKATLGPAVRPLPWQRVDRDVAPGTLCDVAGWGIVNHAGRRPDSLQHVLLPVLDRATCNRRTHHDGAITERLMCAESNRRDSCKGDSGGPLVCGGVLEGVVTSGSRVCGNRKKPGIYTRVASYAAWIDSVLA
Method: Recombinant human factor D (expressed in E. coli and purified using standard methods) at 10 nM concentration is incubated with test compound at various concentrations for 1 hour at room temperature in 0.1 M Hepes buffer, pH 7.5, containing 1 mM MgCl2, 1 M NaCl and 0.05% CHAPS. […] IC50 values are calculated from percentage of inhibition of complement factor D-activity as a function of test compound concentration.
The IC50 is the concentration needed to halve the response being measured. Turning to `NC(=O)c1nn(CC(=O)N2[C@@H]3C[C@@H]3C[C@H]2C(=O)NC2CC2(F)c2ccccc2F)c2ccccc12` (single isomer, unassigned) [Example 50], the IC50 was found to be 3.88 µM.

For `NC(=O)c1nn(CC(=O)N2[C@@H]3C[C@@H]3C[C@H]2C(=O)NC2CC2(F)c2ccccc2F)c2ccccc12` (single isomer, unassigned) [Example 51], the 50% inhibitory concentration (IC50) is 0.992 µM.

Turning to `NC(=O)c1nn(CC(=O)N2[C@@H]3C[C@@H]3C[C@H]2C(=O)NC2CC2(F)c2ccccc2F)c2ccccc12` (single isomer, unassigned) [Example 52], the half-inhibitory concentration (IC50) came to 0.367 µM.

On to `NC(=O)c1nn(CC(=O)N2[C@@H]3C[C@@H]3C[C@H]2C(=O)NC2CC2(F)c2ccccc2F)c2ccccc12` (single isomer, unassigned) [Example 53], for which the 50% inhibitory concentration (IC50) is 0.036 µM.

Take `NC(=O)c1nn(CC(=O)N2[C@@H]3C[C@@H]3C[C@H]2C(=O)NC2CC2c2ccc(F)cc2F)c2ccccc12` (single isomer, unassigned) [Example 74]: the IC50 worked out at 3.76 µM.

For `NC(=O)c1nn(CC(=O)N2[C@@H]3C[C@@H]3C[C@H]2C(=O)NC2CC2c2ccc(F)cc2F)c2ccccc12` (single isomer, unassigned) [Example 75], the 50% inhibitory concentration (IC50) came out at 7.76 µM.

As to `NC(=O)c1nn(CC(=O)N2[C@@H]3C[C@@H]3C[C@H]2C(=O)NC2CC2c2ccc(F)cc2F)c2ccccc12` (single isomer, unassigned) [Example 76], the IC50 is 0.036 µM.

Consider `NC(=O)c1nn(CC(=O)N2[C@@H]3C[C@@H]3C[C@H]2C(=O)NC2CC2c2ccc(F)cc2F)c2ccccc12` (single isomer, unassigned) [Example 77], for which the 50% inhibitory concentration (IC50) is 0.64 µM.

In the case of `CC(=O)c1nn(CC(=O)N2[C@@H]3C[C@@H]3C[C@H]2C(=O)N[C@H]2C[C@@H]2c2ccccc2)c2ccccc12` [Example 1, (1R,3S,5R)-2-[2-(3-Acetyl-indazol-1-yl)-acetyl]-2-aza-bicyclo[3.1.0]hexane-3-carboxylic acid((1S,2R)-2-phenyl-cyclopropyl)-amide], the IC50 is 0.386 µM.

In the case of `CC(=O)c1nn(CC(=O)N2[C@@H]3C[C@@H]3C[C@H]2C(=O)N[C@@H]2C[C@H]2c2ccccc2)c2ccccc12` [Example 2, (1R,3S,5R)-2-[2-(3-Acetyl-indazol-1-yl)-acetyl]-2-aza-bicyclo[3.1.0] hexane-3-carboxylic acid ((1R,2S)-2-phenyl-cyclopropyl)-amide], the half-maximal inhibitory concentration (IC50) was found to be 0.029 µM.

Regarding `CC(=O)c1nn(CC(=O)N2[C@@H]3C[C@@H]3C[C@H]2C(=O)N[C@@H]2C[C@H]2c2ccccc2)c2ccncc12` [Example 3, (1R,3S,5R)-2-[2-(3-Acetyl-pyrazolo[4,3-c]pyridin-1-yl)-acetyl]-2-aza-bicyclo[3.1.0] hexane-3-carboxylic acid ((1R,2S)-2-phenyl-cyclopropyl)-amide], the concentration for half-maximal inhibition (IC50) stood at 0.147 µM.

Take `CC(=O)c1nn(CC(=O)N2[C@@H]3C[C@@H]3C[C@H]2C(=O)N[C@H]2C[C@@H]2c2ccccc2)c2cnccc12` [Example 4, (1R,3S,5R)-2-[2-(3-Acetyl-pyrazolo[3,4-c]pyridin-1-yl)-acetyl]-2-aza-bicyclo[3.1.0] hexane-3-carboxylic acid ((1S,2R)-2-phenyl-cyclopropyl)-amide]: the concentration for half-maximal inhibition (IC50) worked out at 0.702 µM.

For the molecule `CC(=O)c1nn(CC(=O)N2[C@@H]3C[C@@H]3C[C@H]2C(=O)N[C@@H]2C[C@H]2c2ccccc2)c2cnccc12` [Example 5, (1R,3S,5R)-2-[2-(3-Acetyl-pyrazolo[3,4-c]pyridin-1-yl)-acetyl]-2-aza-bicyclo[3.1.0] hexane-3-carboxylic acid ((1R,2S)-2-phenyl-cyclopropyl)-amide], the concentration for half-maximal inhibition (IC50) turned out to be 0.106 µM.

As for `CC(=O)c1nn(CC(=O)N2[C@@H]3C[C@@H]3C[C@H]2C(=O)N[C@@H]2C[C@H]2c2ccccc2)c2ncccc12` [Example 8, (1R,3S,5R)-2-[2-(3-Acetyl-pyrazolo[3,4-b]pyridin-1-yl)-acetyl]-2-aza-bicyclo[3.1.0]hexane-3-carboxylic acid ((1R,2S)-2-phenyl-yclopropyl)-amide], the half-maximal inhibitory concentration (IC50) was 0.123 µM.

With `NC(=O)c1nn(CC(=O)N2[C@@H]3C[C@@H]3C[C@H]2C(=O)N[C@@H]2C[C@H]2c2ccccc2)c2cnccc12` [Example 9, 1-{2-Oxo-2-[(1R,3S,5R)-3-((1R,2S)-2-phenyl-cyclopropylcarbamoyl)-2-aza-bicyclo[3.1.0]hex-2-yl]-ethyl}-1H-pyrazolo[3,4-c]pyridine-3-carboxylic acid amide], the IC50 is 0.065 µM.

As for `CO[C@H]1[C@@H](C(=O)N[C@@H]2C[C@H]2c2ccccc2)N(C(=O)Cn2nc(C(C)=O)c3ccccc32)C[C@@H]1F` [Example 10, (2S,3S,4S)-1-[2-(3-Acetyl-indazol-1-yl)-acetyl]-4-fluoro-3-methoxy-pyrrolidine-2-carboxylic acid ((1R,2S)-2-phenyl-cyclopropyl)-amide], the IC50 is 0.04 µM.

As for `NC(=O)c1nn(CC(=O)N2[C@@H]3C[C@@H]3C[C@H]2C(=O)N[C@@H]2C[C@H]2c2ccccc2)c2ccccc12` [Example 12, 1-{2-Oxo-2-[(1R,3S,5R)-3-((1R,2S)-2-phenyl-cyclopropylcarbamoyl)-2-aza-bicyclo[3.1.0]hex-2-yl]-ethyl}-1H-indazole-3-carboxylic acid amide], the IC50 is 0.06 µM.

`NC(=O)c1nn(CC(=O)N2[C@@H]3C[C@@H]3C[C@H]2C(=O)N[C@@H]2C[C@H]2c2ccccc2)c2ncccc12` [Example 13, 1-{2-Oxo-2-[(1R,3S,5R)-3-((1R,2S)-2-phenyl-cyclopropylcarbamoyl)-2-aza-bicyclo[3.1.0]hex-2-yl]-ethyl}-1H-pyrazolo[3,4-b]pyridine-3-carboxylic acid amide]: the 50% inhibitory concentration (IC50) stood at 0.172 µM.

In the case of `NC(=O)c1nn(CC(=O)N2[C@@H]3C[C@@H]3C[C@H]2C(=O)N[C@@H]2C[C@H]2c2ccccc2)c2ccncc12` [Example 14, 1-{2-Oxo-2-[(1R,3S,5R)-3-((1R,2S)-2-phenyl-cyclopropylcarbamoyl)-2-aza-bicyclo[3.1.0]hex-2-yl]-ethyl}-1H-pyrazolo[4,3-c]pyridine-3-carboxylic acid amide], the IC50 was 0.118 µM.

Take `Cc1cc2c(C(N)=O)nn(CC(=O)N3[C@@H]4C[C@@H]4C[C@H]3C(=O)N[C@@H]3C[C@H]3c3ccccc3)c2cn1` [Example 15, 5-Methyl-1-{2-oxo-2-[(1R,3S,5R)-3-((1R,2S)-2-phenyl-cyclopropylcarbamoyl)-2-aza-bicyclo[3.1.0]hex-2-yl]-ethyl}-1H-pyrazolo[3,4-]pyridine-3-carboxylic acid amide]: the concentration for half-maximal inhibition (IC50) was 0.115 µM.

On to `NC(=O)c1nn(CC(=O)N2C[C@H](F)C[C@H]2C(=O)N[C@@H]2C[C@H]2c2ccccc2)c2ccncc12` [Example 16, 1-{2-[(2S,4R)-4-Fluoro-2-((1R,2S)-2-phenyl-cyclopropylcarbamoyl)-pyrrolidin-1-yl]-2-oxo-ethyl}-1H-pyrazolo[4,3-c]pyridine-3-carboxylic acid amide], for which the IC50 is 1.24 µM.

With `NC(=O)c1nn(CC(=O)N2C[C@H](F)C[C@H]2C(=O)N[C@@H]2C[C@H]2c2ccccc2)c2ncccc12` [Example 17, 1-{2-[(2S,4R)-4-Fluoro-2-((1R,2S)-2-phenyl-cyclopropylcarbamoyl)-pyrrolidin-1-yl]-2-oxo-ethyl}-1H-pyrazolo[3,4-b]pyridine-3-carboxylic acid amide], the IC50 stood at 0.117 µM.

Consider `NC(=O)c1nn(CC(=O)N2C[C@H](F)C[C@H]2C(=O)N[C@@H]2C[C@H]2c2ccccc2)c2ccccc12` [Example 18, 1-{2-[(2S,4R)-4-Fluoro-2-((1R,2S)-2-phenyl-cyclopropylcarbamoyl)-pyrrolidin-1-yl]-2-oxo-ethyl}-1H-indazole-3-carboxylic acid amide], for which the IC50 amounted to 0.044 µM.

In the case of `CCc1cc2c(C(N)=O)nn(CC(=O)N3[C@@H]4C[C@@H]4C[C@H]3C(=O)N[C@@H]3C[C@H]3c3ccccc3)c2cn1` [Example 19, 5-Ethyl-1-{2-oxo-2-[(1R,3S,5R)-3-((1R,2S)-2-phenyl-cyclopropylcarbamoyl)-2-aza-bicyclo[3.1.0]hex-2-yl]-ethyl}-1H-pyrazolo[3,4-c]pyridine-3-carboxylic acid amide], the IC50 was found to be 0.031 µM.

Consider `NC(=O)c1nn(CC(=O)N2[C@@H]3C[C@@H]3C[C@H]2C(=O)N[C@H]2C[C@@H]2c2ccccc2Cl)c2cnccc12` [Example 21, 1-(2-{(1R,3S,5R)-3-[(1S,2R)-2-(2-Chloro-phenyl)-cyclopropylcarbamoyl]-2-aza-bicyclo[3.1.0]hex-2-yl}-2-oxo-ethyl)-1H-pyrazolo[3,4-c]pyridine-3-carboxylic acid amide], for which the IC50 was found to be 1.4 µM.

Turning to `CC(=O)c1nn(CC(=O)N2[C@@H]3C[C@@H]3C[C@H]2C(=O)N[C@]2(C)C[C@H]2c2ccccc2)c2cnccc12` [Example 22, (1R,3S,5R)-2-[2-(3-Acetyl-pyrazolo[3,4-c]pyridin-1-yl)-acetyl]-2-aza-bicyclo[3.1.0] hexane-3-carboxylic acid ((1R,2S)-1-methyl-2-phenyl-cyclopropyl)-amide], the IC50 stood at 0.87 µM.

As for `CC(=O)c1nn(CC(=O)N2[C@@H]3C[C@@H]3C[C@H]2C(=O)N[C@@]2(C)C[C@@H]2c2ccccc2)c2cnccc12` [Example 23, (1R,3S,5R)-2-[2-(3-Acetyl-pyrazolo[3,4-c]pyridin-1-yl)-acetyl]-2-aza-bicyclo[3.1.0] hexane-3-carboxylic acid ((1S,2R)-1-methyl-2-phenyl-cyclopropyl)-amide], the half-inhibitory concentration (IC50) turned out to be 13.2 µM.

Still in this assay, the particulars now being: IC50 (μM), Factor D inhibition, Method 1: 10 nM factor D, 1 hour incubation with compound at room temperature, substrate Z-Lys-thiobenzyl, fluorescence readout.
On to `NC(=O)c1nn(CC(=O)N2[C@@H]3C[C@@H]3C[C@H]2C(=O)NC2CCCC(c3ccccc3)C2)c2ccccc12` (single isomer, unassigned) [Example 78], for which the IC50 came out at 2 µM.

Regarding `NC(=O)c1nn(CC(=O)N2[C@@H]3C[C@@H]3C[C@H]2C(=O)NC2CCCC(c3ccccc3)C2)c2ccccc12` (single isomer, unassigned) [Example 79], the IC50 was found to be 0.114 µM.

As for `NC(=O)c1nn(CC(=O)N2[C@@H]3C[C@@H]3C[C@H]2C(=O)NC2CCCC(c3ccccc3)C2)c2ccccc12` (single isomer, unassigned) [Example 80], the IC50 was 0.475 µM.

With `NC(=O)c1nn(CC(=O)N2[C@@H]3C[C@@H]3C[C@H]2C(=O)NC2CCCC(c3ccccc3)C2)c2ccccc12` (single isomer, unassigned) [Example 81], the IC50 came out at 5.65 µM.
